The results in this text go back to US11970493B2, “Autotaxin inhibitor compounds” (ILDONG PHARMACEUTICAL CO., LTD., priority 2020, dated 2024).

Structures can show the parent of a compound that is named as a salt.

For this assay, the target named is hATX/ENPP2 (Homo sapiens, UniProt Q13822). Briefly: hATX/ENPP2 biochemical assay using 16:0-LPC as substrate (Amplex Red/choline oxidase/HRP fluorescence). Conditions: hENPP2 2.5 nM, LPC (16:0) substrate. How it is done: The enzyme is diluted in 50 mM Tris-HCl pH 8.0, 140 mM NaCl, 5 mM CaCl2, 0.01% Triton X-100 in a total volume of 5 μL. The aqueous solution of enzyme is added to the wells and incubated with different concentrations of the compounds at room temperature for 15 min. The reaction is started by the addition of 5 μL of 80 μM LPC (16:0) and 10 μL of the detection mixture containing 200 μM Amplex Red, 10 U/mL choline oxidase and 4 U/mL HRP. Fluorescence at 590 nm was measured kinetically with excitation at 530 nm. The slope of the curve (from 60 to 70 min of the reaction time) was used to calculate the compounds' IC50 values.

Broadly, the IC50 is the concentration that gives 50% inhibition. Low readings indicate higher potency, high ones lower potency. In the case of `CCc1nc2ccc(-c3cnc(NCC4CNC4)nc3)cn2c1N(C)c1nc(-c2ccc(F)cc2)c(C#N)s1` [38 (formate salt), 2-((6-(2-((azetidin-3-ylmethyl)amino)pyrimidin-5-yl)-2-ethylimidazo[1,2-a]pyridin-3-yl)(methyl)amino)-4-(4-fluorophenyl)thiazole-5-carbonitrile formate], the IC50 is more than 200 nM.
Under `CCc1nc2ccc(-c3cnc(N4CCN(C(=O)NC5CNC5)CC4)nc3)cn2c1N(C)c1nc(-c2ccc(F)cc2)c(C#N)s1` [66 (hydrochloride salt), N-(azetidin-3-yl)-4-(5-(3-((5-cyano-4-(4-fluorophenyl)thiazol-2-yl)(methyl)amino)-2-ethylimidazo[1,2-a]pyridin-6-yl)pyrimidin-2-yl)piperazine-1-carboxamide hydrochloride] stands not above 20 nM.
Under `CCc1nc2ccc(-c3cnc(N4CC(C(=O)NC5CNC5)C4)nc3)cn2c1N(C)c1nc(-c2ccc(F)cc2)c(C#N)s1` [70 (hydrochloride salt), N-(azetidin-3-yl)-1-(5-(3-((5-cyano-4-(4-fluorophenyl)thiazol-2-yl)(methyl)amino)-2-ethylimidazo[1,2-a]pyridin-6-yl)pyrimidin-2-vl) azetidine-3-carboxamide hydrochloride] stands 20 to 200 nM; under `CCc1nc2ccc(-c3cnc(N4CC(C(=O)NC5CCNCC5)C4)nc3)cn2c1N(C)c1nc(-c2ccc(F)cc2)c(C#N)s1` [71 (hydrochloride salt), 1-(5-(3-((5-cyano-4-(4-fluorophenyl)thiazol-2-yl)(methyl)amino)-2-ethylimidazo[1,2-a]pyridin-6-yl)pyrimidin-2-yl)-N-(piperidin-4-yl) azetidine-3-carboxamide hydrochloride], 20 to 200 nM.
Under `CCc1nc2ccc(-c3cnc(N4CC(NC5CN(C)C5)C4)nc3)cn2c1N(C)c1nc(-c2ccc(F)cc2)c(C#N)s1` [80 (hydrochloride salt), 2-((2-ethyl-6-(2-(3-((I-methylazetidin-3-yl)amino)azetidin-1-yl)pyrimidin-5-yl)imidazo[1,2-a]pyridin-3-yl)(methyl)amino)-4-(4-fluorophenyl)thiazole-5-carbonitrile hydrochloride] stands 20 to 200 nM; under `CCc1nc2ccc(-c3cnc(N4CC(NC(=O)[C@@H]5C[C@@H](O)CN5C)C4)nc3)cn2c1N(C)c1nc(-c2ccc(F)cc2)c(C#N)s1` [81 (hydrochloride salt), (2S,4R)—N-(1-(5-(3-((5-cyano-4-(4-fluorophenyl)thiazol-2-yl)(methyl)amino)-2-ethylimidazo[1,2-a]pyridin-6-yl)pyrimidin-2-yl)azetidin-3-yl)-4-hydroxy-1-methyl pyrrolidine-2-carboxamide hydrochloride], 20 to 200 nM; under `CCc1nc2ccc(-c3cnc(N4CC(N)C4)nc3)cn2c1N(C)c1nc(-c2ccc(F)cc2)c(C#N)s1` [Compound 3, 2-((6-(2-(3-aminoazetidin-1-yl)pyrimidin-5-yl)-2-ethylimidazo[1,2-a]pyridin-3-yl)(methyl)amino)-4-(4-fluorophenyl)thiazole-5-carbonitrile], 20 to 200 nM.
Turning to `CCc1nc2ccc(-c3cnc(N4CCNCC4)nc3)cn2c1N(C)c1nc(-c2ccc(F)cc2)c(C#N)s1` [Compound 4, 2-((2-ethyl-6-(2-(piperazin-1-yl)pyrimidin-5-yl)imidazo[1,2-a]pyridin-3-yl)(methyl)amino)-4-(4-fluorophenyl)thiazole-5-carbonitrile], the IC50 is 20 to 200 nM.
Consider `CCc1nc2ccc(-c3cnc(N4CCN(C(=O)[C@@H]5C[C@@H](O)CN5)CC4)nc3)cn2c1N(C)c1nc(-c2ccc(F)cc2)c(C#N)s1` [Compound 5, 2-((2-ethyl-6-(2-(4-((2S,4R)-4-hydroxypyrrolidine-2-carbonyl)piperazin-1-yl)pyrimidin-5-yl)imidazo[1,2-a]pyridin-3-yl)(methyl)amino)-4-(4-fluorophenyl)thiazole-5-carbonitrile], for which the IC50 was not above 20 nM.
Under `CCc1nc2ccc(-c3cnc(N4CCN(C(=O)[C@H]5C[C@@H](O)CN5)CC4)nc3)cn2c1N(C)c1nc(-c2ccc(F)cc2)c(C#N)s1` [Compound 6, 2-((2-ethyl-6-(2-(4-((2R,4R)-4-hydroxypyrrolidine-2-carbonyl)piperazin-1-yl)pyrimidin-5-yl)imidazo[1,2-a]pyridin-3-yl) (methyl)amino)-4-(4-fluorophenyl)thiazole-5-carbonitrile] stands not above 20 nM; under `CCc1nc2ccc(-c3cnc(N4CCN(C(=O)[C@@H]5C[C@H](O)CN5)CC4)nc3)cn2c1N(C)c1nc(-c2ccc(F)cc2)c(C#N)s1` [Compound 7, 2-((2-ethyl-6-(2-(4-((2S,4S)-4-hydroxypyrrolidine-2-carbonyl)piperazin-1-yl)pyrimidin-5-yl)imidazo[1,2-a]pyridin-3-yl)(methyl)amino)-4-(4-fluorophenyl) thiazole-5-carbonitrile], not above 20 nM.
Under `CCc1nc2ccc(-c3cnc(N4CCN(C(=O)[C@H]5C[C@H](O)CN5)CC4)nc3)cn2c1N(C)c1nc(-c2ccc(F)cc2)c(C#N)s1` [Compound 8, 2-((2-ethyl-6-(2-(4-((2R,4S)-4-hydroxypyrrolidine-2-carbonyl)piperazin-1-yl)pyrimidin-5-yl)imidazo[1,2-a]pyridin-3-yl)(methyl)amino)-4-(4-fluorophenyl)thiazole-5-carbonitrile] stands not above 20 nM; under `CCc1nc2ccc(-c3cnc(N4CCN(C(=O)C5CNC5)CC4)nc3)cn2c1N(C)c1nc(-c2ccc(F)cc2)c(C#N)s1` [Compound 9, 2-((6-(2-(4-(azetidine-3-carbonyl)piperazin-1-yl)pyrimidin-5-yl)-2-ethylimidazo[1,2-a]pyridin-3-yl)(methyl)amino)-4-(4-fluorophenyl)thiazole-5-carbonitrile], not above 20 nM; under `CCc1nc2ccc(-c3cnc(C(=O)N4CC(O)C4)nc3)cn2c1N(C)c1nc(-c2ccc(F)cc2)c(C#N)s1` [Compound 11, 2-((2-ethyl-6-(2-(3-hydroxyazetidine-1-carbonyl)pyrimidin-5-yl)imidazo[1,2-a]pyridin-3-yl)(methyl)amino)-4-(4-fluorophenyl)thiazole-5-carbonitrile], 20 to 200 nM.
In the case of `CCc1nc2ccc(-c3cnc(C(=O)N4CC(NC5CC5)C4)nc3)cn2c1N(C)c1nc(-c2ccc(F)cc2)c(C#N)s1` [Compound 12, 2-((6-(2-(3-(cyclopropylamino)azetidine-1-carbonyl)pyrimidin-5-yl)-2-ethylimidazo[1,2-a]pyridin-3-yl)(methyl)amino)-4-(4-fluorophenyl)thiazole-5-carbonitrile] it was 20 to 200 nM; in that of `CCc1nc2ccc(-c3cnc(C(=O)N4CC(NC5CCC5)C4)nc3)cn2c1N(C)c1nc(-c2ccc(F)cc2)c(C#N)s1` [Compound 13, 2-((6-(2-(3-(cyclobutylamino)azetidine-1-carbonyl)pyrimidin-5-yl)-2-ethylimidazo[1,2-a]pyridin-3-yl)(methyl)amino)-4-(4-fluorophenyl)thiazole-5-carbonitrile], more than 200 nM.
Turning to `CCc1nc2ccc(-c3cnc(C(=O)N4CC(N5CCC5)C4)nc3)cn2c1N(C)c1nc(-c2ccc(F)cc2)c(C#N)s1` [Compound 14, 2-((6-(2-([1,3′-biazetidine]-1′-carbonyl)pyrimidin-5-yl)-2-ethylimidazo[1,2-a]pyridin-3-yl)(methyl)amino)-4-(4-fluorophenyl) thiazole-5-carbonitrile], the IC50 was in the range of 20 to 200 nM.
In the case of `CCc1nc2ccc(-c3cnc(C(=O)N4CCC(O)CC4)nc3)cn2c1N(C)c1nc(-c2ccc(F)cc2)c(C#N)s1` [Compound 15, 2-((2-ethyl-6-(2-(4-hydroxypiperidine-1-carbonyl)pyrimidin-5-yl)imidazo[1,2-a]pyridin-3-yl)(methyl)amino)-4-(4-fluorophenyl)thiazole-5-carbonitrile] it was 20 to 200 nM; in that of `CCc1nc2ccc(-c3cnc(C(=O)NC4(C#N)CC4)nc3)cn2c1N(C)c1nc(-c2ccc(F)cc2)c(C#N)s1` [Compound 16, 5-(3-((5-cyano-4-(4-fluorophenyl)thiazol-2-yl)(methyl)amino)-2-ethylimidazo[1,2-a]pyridin-6-yl)-N-(1-cyanocyclopropyl)pyrimidine-2-carboxamide], 20 to 200 nM; in that of `CCc1nc2ccc(-c3cnc(N4CCC(NC5(C#N)CC5)CC4)nc3)cn2c1N(C)c1nc(-c2ccc(F)cc2)c(C#N)s1` [Compound 17, 2-((6-(2-(4-((1-cyanocyclopropyl)amino)piperidin-1-yl)pyrimidin-5-yl)-2-ethylimidazo[1,2-a]pyridin-3-yl)(methyl)amino)-4-(4-fluorophenyl)thiazole-5-carbonitrile], 20 to 200 nM.
In the case of `CCc1nc2ccc(-c3cnc(N4CCC(NC5(CO)CC5)CC4)nc3)cn2c1N(C)c1nc(-c2ccc(F)cc2)c(C#N)s1` [Compound 18, 2-((2-ethyl-6-(2-(4-((1-(hydroxymethyl)cyclopropyl)amino)piperidin-1-yl)pyrimidin-5-yl)imidazo[1,2-a]pyridin-3-yl) (methyl)amino)-4-(4-fluorophenyl)thiazole-5-carbonitrile] it was not above 20 nM; in that of `CCc1nc2ccc(-c3cnc(N4CCC(NC(=O)C5(O)CC5)CC4)nc3)cn2c1N(C)c1nc(-c2ccc(F)cc2)c(C#N)s1` [Compound 19, N-(1-(5-(3-((5-cyano-4-(4-fluorophenyl)thiazol-2-yl)(methyl)amino)-2-ethylimidazo[1,2-a]pyridin-6-yl)pyrimidin-2-yl)piperidin-4-yl)-1-hydroxycyclopropane-1-carboxamide], not above 20 nM.
